Results on six compounds are retold here after PMC9182007, “Statistical Methods in the Study of Protein Binding and Its Relationship to Drug Bioavailability in Breast Milk” (Molecules, 2022).

Where two headings read alike, the source gives them in different places.

Data set [1] in a line: RP TLC on non-impregnated control plates. In kind it is physicochemical. The conditions noted are these: for CRP (Rf, control RP plate): Table S4, non-impregnated RP plate, acetonitrile/acetate buffer pH 7.4/methanol 60:20:20.
In data set [2] the target is T1, human serum albumin (HSA) (Homo sapiens, UniProt P02768).
T1 sequence (P02768 25-609): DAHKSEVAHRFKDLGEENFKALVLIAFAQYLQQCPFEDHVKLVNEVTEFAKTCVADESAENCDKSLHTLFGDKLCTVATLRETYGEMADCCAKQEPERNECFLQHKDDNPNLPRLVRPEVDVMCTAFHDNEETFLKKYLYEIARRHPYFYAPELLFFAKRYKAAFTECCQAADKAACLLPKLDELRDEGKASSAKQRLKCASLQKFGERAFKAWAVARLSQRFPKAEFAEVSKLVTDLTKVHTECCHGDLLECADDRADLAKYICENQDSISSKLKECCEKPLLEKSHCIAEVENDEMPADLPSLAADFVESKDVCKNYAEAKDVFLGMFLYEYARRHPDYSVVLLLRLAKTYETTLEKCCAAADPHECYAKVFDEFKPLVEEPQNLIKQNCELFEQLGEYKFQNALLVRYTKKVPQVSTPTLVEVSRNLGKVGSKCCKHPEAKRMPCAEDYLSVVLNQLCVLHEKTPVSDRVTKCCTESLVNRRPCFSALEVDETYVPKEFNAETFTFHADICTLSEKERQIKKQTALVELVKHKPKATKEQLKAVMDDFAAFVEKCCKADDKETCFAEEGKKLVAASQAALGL
The conditions of data set [3]: source not stated, cited from earlier work.
In data set [4] the target is T1, human serum albumin (HSA). In words: in vitro. To be noted: immobilized hsa column, pH 7.4.
The target of data set [5] is T2, bovine serum albumin (BSA) (Bos taurus, UniProt P02769).
T2 construct: purchased Sigma Aldrich
T2 sequence (P02769 25-607): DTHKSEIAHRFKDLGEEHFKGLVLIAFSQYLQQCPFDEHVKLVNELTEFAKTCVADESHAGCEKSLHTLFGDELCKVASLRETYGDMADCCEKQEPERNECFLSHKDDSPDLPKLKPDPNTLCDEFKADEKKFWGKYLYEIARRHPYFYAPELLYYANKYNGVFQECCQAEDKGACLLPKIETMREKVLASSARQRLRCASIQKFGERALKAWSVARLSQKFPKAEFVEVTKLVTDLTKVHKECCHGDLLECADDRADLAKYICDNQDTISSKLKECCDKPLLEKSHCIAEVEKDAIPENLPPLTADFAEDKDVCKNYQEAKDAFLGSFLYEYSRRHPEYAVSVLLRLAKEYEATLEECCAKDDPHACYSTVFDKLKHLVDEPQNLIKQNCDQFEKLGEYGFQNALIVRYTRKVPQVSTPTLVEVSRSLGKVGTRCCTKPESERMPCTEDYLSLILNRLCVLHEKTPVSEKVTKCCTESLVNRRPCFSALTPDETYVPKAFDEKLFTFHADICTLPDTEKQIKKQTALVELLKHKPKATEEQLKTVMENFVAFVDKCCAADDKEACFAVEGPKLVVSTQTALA
Kind of data set: RP TLC on plates impregnated with bovine serum albumin. It counts as binding. To be noted: for RP (Rf, BSA-impregnated RP plate): Table S4, RP plate impregnated with 2 mg/mL BSA, pH 7.4 mobile phase.
Description: (§1) Chromatographic descriptors were obtained in experiments, thin layer chromatography in normal (NP TLC) and reversed mode (RP TLC). The stationary phase was modified with bovine serum albumin (BSA). TLC was the source of retention factor (Rf) values, denoted in statistical models as NP and RP.
(§2) For TLC chromatography, glass plates 20 × 20 cm from Merck, covered with silica gel with the addition of a fluorescent indicator, were used. Normal phase (NP) plates were used with standard Merck TLC Silica gel 60 F254 plates, while in reverse phase (RP) silanized plates RP-2: Merck TLC Silica gel 60 RP-2 F254 were used.
(§3) The stationary phase of the plates, both NP and RP, was modified with an aqueous solution of bovine serum albumin purchased from Sigma Aldrich (bovine serum albumin, lyophilized powder).
(§4) The impregnation of the plates was carried out with a 2 mg/mL solution applied to the surface using a Desaga SG 1 hand sprayer; the plates were then air dried. […] Normal and reversed phase thin layer chromatography (NP TLC and RP TLC respectively) was performed using silica-gel-coated glass plates. Half of them were covered with 2 mg/mL bovine serum albumin solution and half remained pure.
(§5) The mobility of the compounds was also determined on the plates with no protein as a modifier. […] The acetate buffer (20 mM) was prepared by dissolving 1.54 g of ammonium acetate in 1 L of distilled water. The pH was then adjusted with a concentrated ammonia solution using a pH meter. The plates were developed in standard, vertical chromatographic chambers, each time using 100 mL of the mobile phase, after the chamber was previously saturated with solvent vapors for approximately 1 h.
(§6) The unfolded-protein-impregnated plates and the control plates were scanned with a Desaga CD 60 densitometer. The values of the delay factor (Rf) were collected, i.e., the ratio of the distance traveled by the substance to be analyzed to the distance traveled through the front of the mobile phase. […] The experiment was repeated (for both BSA-coated and control plates) and the Rf values pooled are the mean of both series of experiments.

A short description of data set [6]: NP TLC on non-impregnated control plates. It counts as physicochemical. The conditions noted are these: for CNP (Rf, control NP plate): Table S3, non-impregnated NP plate, acetonitrile/acetate buffer pH 7.4/methanol 60:20:20.
For data set [7] the following is noted: cited from earlier work.
In data set [8] the target is T2, bovine serum albumin (BSA). Kind of data set: NP TLC on plates impregnated with bovine serum albumin. The conditions noted are these: for NP (Rf, BSA-impregnated NP plate): Table S3, NP plate impregnated with 2 mg/mL BSA, pH 7.4 mobile phase. It counts as binding.
Description: as §1, §2, §3, §4, §5, §6
Data set [9] relates to plasma protein. To be noted: ref DrugBank [7], cited from earlier work.
The nature of data set [10]: HPLC on immobilized artificial membrane column (HPLCIAM). It counts as physicochemical. The conditions noted are these: for log k IAM: Table S5, IAM column, pH 7.4; for k IAM: Table S5, retention factor, IAM column, phosphate buffer pH 7.4/acetonitrile 80:20.
Protocol: High performance liquid chromatography was performed using immobilized human serum albumin column (HPLCHSA) and immobilized artificial membrane (HPLCIAM). HPLC was the source of the log k values (logarithm of retention factor), log kHSA and log kIAM.
The second experiment was performed using an immobilized artificial membrane (IAM) column. The assay was also performed on a Perkin Elmer Series 200 instrument connected to a UV-VIS spectrometer as the detector. The analytical wavelength was the same for all compounds, at 210 nm. […] The mobile phase was a mixture of 10 mM phosphate buffer pH 7.4 and acetonitrile in the ratio 80:20 (v/v). The phosphate buffer was obtained by dissolving the finished tablet in the appropriate amount of distilled water (1 tablet per 200 mL). In this case, it was not necessary to adjust the pH of the buffer using a pH meter.
The phase flow through the system was set to 0.5 mL/min as recommended by the column manufacturer. The solutions were delivered to the column using an autosampler syringe, the injection size was 10 µL.
The experiment was then repeated and the collected retention rates were the mean values of both series.
The conditions of data set [11]: ref DrugBank [7], cited from earlier work.
The nature of data set [12]: Milk-to-plasma (M/P) drug concentration ratio obtained in vivo, from literature. On the set-up: species or system human. To be noted: Table S1, scale of drug penetration into milk 1-4.
Where [13] appears, read: Table S1, plasma protein binding given as fraction.
[14] abbreviates: Table S5, retention factor, HSA column, pH 7.4, 25 degrees Celsius.

Consider `CN(C)CCC=C1c2ccccc2CCc2ccccc21` [amitriptyline], for which the “CRP (Rf value from the non-impregnated RP plate, control)” value in [1] (Table S8, external group) is 0.67. The kHSA in [2] (Table S9, external group) was determined as 5.87. In addition, the BB vivo in [3] (Table S6, external group) was 0.89. The same compound had a chromatographic logD in data set [4] of 0.77. Besides, the “RP (Rf value from the RP plate impregnated with 2 mg/mL BSA solution)” value in data set [5] (Table S8, external group) is reported as 0.63. Also, the “CNP (Rf value from the non-impregnated NP plate, control)” value in data set [6] (Table S8, external group) amounted to 0.32. In addition, the M/P in data set [7] (Table S6, external group (n = 38)) was 0.92. Moreover, in [8] (Table S8, external group), the “NP (Rf value from the NP plate impregnated with 2 mg/mL BSA solution)” value was 0.31. The PB in [9] (Table S6, external group (n = 38), given as fraction) is on record as 0.95. Further, in data set [10] (Table S9, external group), the “log kIAM” value is listed as 0.19. Moreover, in [11] (Table S6, external group, coded 1/0), the “CNS+/-” value was 1.

As to `CC(C)C[C@H]1C(=O)N2CCC[C@H]2[C@]2(O)O[C@](NC(=O)[C@@H]3C=C4c5cccc6[nH]c(Br)c(c56)C[C@H]4N(C)C3)(C(C)C)C(=O)N12` [bromocriptine], the “CRP (Rf, control RP plate)” value in data set [1] was 0.69. Besides, the “k HSA” value in data set [2] (pH 7.4) was determined as 8.09. Further, the BB vivo in data set [3] (Table S1) is reported as -1.100. The chromatographic logD in data set [4] is 0.91. For the same compound, the “RP (Rf, BSA-impregnated RP plate)” value in [5] was 0.70. Further, the “CNP (Rf, control NP plate)” value in [6] was determined as 0.95. Moreover, the “NP (Rf, BSA-impregnated NP plate)” value in data set [8] is 0.96. For the same compound, the PB in [9] (setting [13]) is recorded as 0.93. For the same compound, in data set [10], the “log k IAM” value is listed as 1.10 and the “k IAM” value came out at 12.69.

Take `NC(=O)N1c2ccccc2C=Cc2ccccc21` [carbamazepine]: the “CRP (Rf, control RP plate)” value in data set [1] is 0.83. The “log k HSA” value in data set [2] (Table S5, HSA, pH 7.4) is reported as 0.04. Moreover, the “k HSA” value in data set [2] (setting [14]) worked out at 1.09. Further, in data set [3] (Table S1), the BB vivo is -0.070. For the same compound, the “RP (Rf, BSA-impregnated RP plate)” value in data set [5] was 0.84. In addition, in [6], the “CNP (Rf, control NP plate)” value is 0.95. The M/P in [7] (Table S1, milk/plasma drug concentration ratio, in vivo) is reported as 0.558. The “NP (Rf, BSA-impregnated NP plate)” value in [8] came to 0.95. The PB in data set [9] (setting [13]) is listed as 0.76. Also, in [10], the “log k IAM” value is 0.18 and the “k IAM” value came out at 1.50. Further, in data set [12], the M/P code is on record as 2 (2 corresponds to the range of 0.40–0.80—at the safety limit). For the same compound, in data set [11] (Table S1, coded 1/0), the “CNS+/-” value is 1.

For the compound `CN(C)CCCN1c2ccccc2Sc2ccc(Cl)cc21` [chlorpromazine], the “CRP (Rf, control RP plate)” value in data set [1] came out at 0.49. The “k HSA” value in data set [2] (setting [14]) was 13.33. Further, the BB vivo in [3] (Table S1) is reported as 0.950. For the same compound, the chromatographic logD in [4] stood at 1.12. Further, the “RP (Rf, BSA-impregnated RP plate)” value in data set [5] amounted to 0.50. Besides, the “CNP (Rf, control NP plate)” value in [6] is listed as 0.43. The “NP (Rf, BSA-impregnated NP plate)” value in [8] was found to be 0.43. Besides, the PB in [9] (setting [13]) is listed as 0.9. Also, in data set [10], the “log k IAM” value came out at 1.77 and the “k IAM” value stood at 58.85.

Take `OCCOCCN1CCN(C(c2ccccc2)c2ccc(Cl)cc2)CC1` (stereo not shown) [hydroxyzine]: the “k HSA” value in [2] (setting [14]) came to 3.69. In addition, the BB vivo in [3] (Table S1) was 0.285. The same compound gave a chromatographic logD in data set [4] of 0.57. Moreover, the “CNP (Rf, control NP plate)” value in data set [6] is 0.55. Besides, the “NP (Rf, BSA-impregnated NP plate)” value in [8] turned out to be 0.55. Moreover, in data set [9] (setting [13]), the PB is on record as 0.93. Further, in data set [10], the “log k IAM” value came to 1.14 and the “k IAM” value turned out to be 13.82. In data set [11] (Table S1, coded 1/0), the “CNS+/-” value is on record as 1.

For the compound `CN(C)CCCN1c2ccccc2Sc2ccccc21` [promazine], the “CRP (Rf, control RP plate)” value in [1] was 0.51. For the same compound, the “k HSA” value in [2] (setting [14]) was found to be 8.9. For the same compound, the “log k HSA” value in data set [2] (human, immobilized hsa column, pH 7.4) was 0.95. Moreover, the BB vivo in data set [3] (Table S1) is recorded as 0.880. In addition, the “RP (Rf, BSA-impregnated RP plate)” value in [5] turned out to be 0.51. For the same compound, the “CNP (Rf, control NP plate)” value in data set [6] is on record as 0.39. The “NP (Rf, BSA-impregnated NP plate)” value in data set [8] is 0.37. Moreover, the PB in data set [9] (setting [13]) is given as 0.94. Besides, in data set [10], the “log k IAM” value is recorded as -1.02 and the “k IAM” value turned out to be 0.10. Moreover, the “CNS+/-” value in [11] (Table S1, coded 1/0) is 1.
